Legend:
[1] = target: T1, Alpha-2A adrenergic receptor (Homo sapiens, UniProt P08913); format: functional, cell-based
T1 sequence (P08913 whole entry): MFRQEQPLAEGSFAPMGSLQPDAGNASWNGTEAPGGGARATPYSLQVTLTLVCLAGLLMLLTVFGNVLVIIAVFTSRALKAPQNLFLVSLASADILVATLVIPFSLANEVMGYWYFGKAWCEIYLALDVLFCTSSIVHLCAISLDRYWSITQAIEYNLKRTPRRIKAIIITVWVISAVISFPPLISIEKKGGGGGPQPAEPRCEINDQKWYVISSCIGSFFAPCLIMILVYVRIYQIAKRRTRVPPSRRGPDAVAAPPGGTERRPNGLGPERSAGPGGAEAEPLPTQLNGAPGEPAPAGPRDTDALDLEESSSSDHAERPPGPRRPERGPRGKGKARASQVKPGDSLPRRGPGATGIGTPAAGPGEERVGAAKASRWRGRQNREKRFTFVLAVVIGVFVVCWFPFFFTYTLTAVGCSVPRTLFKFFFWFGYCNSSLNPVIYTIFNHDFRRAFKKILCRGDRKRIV

[2] = target: T2, Equilibrative nucleoside transporter 1 (Homo sapiens, UniProt Q99808)
T2 sequence (Q99808 whole entry): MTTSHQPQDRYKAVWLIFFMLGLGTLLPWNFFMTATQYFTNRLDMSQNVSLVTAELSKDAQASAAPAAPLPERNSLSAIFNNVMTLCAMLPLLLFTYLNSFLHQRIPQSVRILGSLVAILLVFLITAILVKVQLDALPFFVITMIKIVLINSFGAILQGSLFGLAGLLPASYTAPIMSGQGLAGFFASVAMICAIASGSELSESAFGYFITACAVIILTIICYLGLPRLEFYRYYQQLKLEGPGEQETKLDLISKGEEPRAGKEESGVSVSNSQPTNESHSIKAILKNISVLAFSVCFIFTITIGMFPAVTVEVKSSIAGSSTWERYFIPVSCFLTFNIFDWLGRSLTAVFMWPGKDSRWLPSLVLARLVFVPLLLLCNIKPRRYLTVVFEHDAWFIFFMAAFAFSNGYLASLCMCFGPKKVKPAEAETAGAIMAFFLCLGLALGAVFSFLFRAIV

[3] = target: T3, Glucocorticoid receptor (Homo sapiens, UniProt P04150)
T3 sequence (P04150 whole entry): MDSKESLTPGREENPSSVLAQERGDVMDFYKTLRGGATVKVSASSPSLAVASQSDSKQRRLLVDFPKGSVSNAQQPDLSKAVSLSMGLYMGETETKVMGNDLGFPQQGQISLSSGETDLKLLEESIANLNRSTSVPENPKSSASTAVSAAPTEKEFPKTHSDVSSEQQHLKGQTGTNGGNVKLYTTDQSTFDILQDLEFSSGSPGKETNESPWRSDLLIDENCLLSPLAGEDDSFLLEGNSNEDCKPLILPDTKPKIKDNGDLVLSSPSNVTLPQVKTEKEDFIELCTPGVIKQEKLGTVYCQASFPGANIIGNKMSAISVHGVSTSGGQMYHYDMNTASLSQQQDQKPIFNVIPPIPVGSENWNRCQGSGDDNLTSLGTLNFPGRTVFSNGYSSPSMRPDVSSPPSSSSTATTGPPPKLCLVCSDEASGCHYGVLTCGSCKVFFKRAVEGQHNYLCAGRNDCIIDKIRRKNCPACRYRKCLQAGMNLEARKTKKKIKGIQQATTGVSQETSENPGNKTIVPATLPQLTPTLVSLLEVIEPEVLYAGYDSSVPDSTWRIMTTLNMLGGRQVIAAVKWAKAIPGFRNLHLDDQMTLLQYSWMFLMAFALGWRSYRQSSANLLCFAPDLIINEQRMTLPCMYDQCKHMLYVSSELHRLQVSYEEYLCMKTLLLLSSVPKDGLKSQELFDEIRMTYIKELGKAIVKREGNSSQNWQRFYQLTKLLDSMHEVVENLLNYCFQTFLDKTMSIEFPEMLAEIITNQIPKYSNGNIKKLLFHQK

[4] = target: T4, 5-hydroxytryptamine receptor 3A (Homo sapiens, UniProt P46098); format: functional
T4 sequence (P46098 whole entry): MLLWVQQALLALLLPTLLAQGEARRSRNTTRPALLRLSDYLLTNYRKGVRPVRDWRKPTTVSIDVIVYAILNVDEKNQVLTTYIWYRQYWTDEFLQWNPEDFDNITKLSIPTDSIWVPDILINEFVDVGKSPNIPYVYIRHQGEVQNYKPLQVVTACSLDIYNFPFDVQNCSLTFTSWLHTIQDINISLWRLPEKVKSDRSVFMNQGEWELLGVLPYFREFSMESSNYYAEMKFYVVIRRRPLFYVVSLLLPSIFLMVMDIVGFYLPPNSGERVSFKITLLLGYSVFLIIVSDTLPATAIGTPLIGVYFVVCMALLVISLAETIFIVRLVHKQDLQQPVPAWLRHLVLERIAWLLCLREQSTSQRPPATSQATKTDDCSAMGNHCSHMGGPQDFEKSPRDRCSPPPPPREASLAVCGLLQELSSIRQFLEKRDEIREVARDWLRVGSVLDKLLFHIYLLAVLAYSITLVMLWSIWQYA

[5] = target: 3',5'-cyclic-AMP phosphodiesterase 4D (Homo sapiens, UniProt Q08499); format: functional
3',5'-cyclic-AMP phosphodiesterase 4D, sequence (Q08499 whole entry): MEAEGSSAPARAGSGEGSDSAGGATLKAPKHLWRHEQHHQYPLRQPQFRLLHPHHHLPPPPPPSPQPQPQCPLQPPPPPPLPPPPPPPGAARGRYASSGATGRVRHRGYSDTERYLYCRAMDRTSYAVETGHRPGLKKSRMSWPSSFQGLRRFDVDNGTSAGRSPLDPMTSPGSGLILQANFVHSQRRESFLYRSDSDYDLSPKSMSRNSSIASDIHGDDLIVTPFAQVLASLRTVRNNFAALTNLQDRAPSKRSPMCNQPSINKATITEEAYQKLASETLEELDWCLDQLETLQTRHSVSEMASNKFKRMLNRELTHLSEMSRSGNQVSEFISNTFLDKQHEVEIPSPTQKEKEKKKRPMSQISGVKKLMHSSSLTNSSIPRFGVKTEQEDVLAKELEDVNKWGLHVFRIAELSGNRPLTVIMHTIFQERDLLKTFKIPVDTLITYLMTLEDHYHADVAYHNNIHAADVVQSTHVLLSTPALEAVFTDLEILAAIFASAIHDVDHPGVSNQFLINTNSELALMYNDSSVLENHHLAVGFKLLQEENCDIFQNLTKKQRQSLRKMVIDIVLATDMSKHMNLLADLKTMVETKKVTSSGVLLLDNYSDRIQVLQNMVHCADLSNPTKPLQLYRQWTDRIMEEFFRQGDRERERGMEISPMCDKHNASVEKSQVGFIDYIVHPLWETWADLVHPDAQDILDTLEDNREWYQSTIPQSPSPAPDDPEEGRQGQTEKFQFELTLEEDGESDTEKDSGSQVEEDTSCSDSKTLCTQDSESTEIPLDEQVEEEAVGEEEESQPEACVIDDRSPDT

[6] = target: Histamine H3 receptor (Homo sapiens, UniProt Q9Y5N1)
Histamine H3 receptor, sequence (Q9Y5N1 whole entry): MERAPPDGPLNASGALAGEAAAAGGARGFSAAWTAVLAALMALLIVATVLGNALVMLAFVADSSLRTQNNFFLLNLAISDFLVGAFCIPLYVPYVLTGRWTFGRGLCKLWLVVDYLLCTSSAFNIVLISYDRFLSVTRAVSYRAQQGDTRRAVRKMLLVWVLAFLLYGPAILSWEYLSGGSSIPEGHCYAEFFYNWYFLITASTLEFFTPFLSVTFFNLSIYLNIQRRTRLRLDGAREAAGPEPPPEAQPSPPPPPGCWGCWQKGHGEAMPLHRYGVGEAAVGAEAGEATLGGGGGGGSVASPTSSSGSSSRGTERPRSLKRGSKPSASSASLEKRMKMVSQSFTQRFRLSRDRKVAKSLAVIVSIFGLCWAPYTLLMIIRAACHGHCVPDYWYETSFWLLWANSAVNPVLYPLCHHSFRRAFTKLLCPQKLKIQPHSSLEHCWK

[7] = target: T5, Alpha-1A adrenergic receptor (Homo sapiens, UniProt P35348); format: functional, cell-based
T5 sequence (P35348 whole entry): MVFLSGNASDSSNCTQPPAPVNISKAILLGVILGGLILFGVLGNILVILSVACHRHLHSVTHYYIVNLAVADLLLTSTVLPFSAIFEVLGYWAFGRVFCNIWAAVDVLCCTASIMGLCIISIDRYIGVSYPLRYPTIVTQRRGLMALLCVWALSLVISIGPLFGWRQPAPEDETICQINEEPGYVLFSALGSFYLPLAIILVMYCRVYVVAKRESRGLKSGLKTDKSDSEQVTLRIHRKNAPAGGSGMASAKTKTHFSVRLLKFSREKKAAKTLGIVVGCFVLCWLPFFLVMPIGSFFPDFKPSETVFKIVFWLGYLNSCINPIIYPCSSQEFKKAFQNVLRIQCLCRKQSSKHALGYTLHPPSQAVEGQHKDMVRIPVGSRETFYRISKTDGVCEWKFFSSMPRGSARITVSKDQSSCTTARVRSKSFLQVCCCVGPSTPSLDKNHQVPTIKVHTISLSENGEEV
Further: assay procedure not described here.

| Structure (SMILES) | AC50 [1] | AC50 [2] | AC50 [3] | AC50 [4] | AC50 [5] | AC50 [6] | AC50 [7] |
| --- | --- | --- | --- | --- | --- | --- | --- |
| C[C@H](CSC(=O)c1ccccc1)C(=O)N1C[C@@H](Sc2ccccc2)C[C@H]1C(=O)O [ZOFENOPRIL] | > 10 µM | > 10 µM | > 10 µM | > 30 µM | > 10 µM |  |  |
| N#Cc1ccc([C@H]2CCc3cncn32)c(F)c1 [OSILODROSTAT] |  | > 10 µM |  | > 10 µM | > 10 µM | > 10 µM |  |
| Cn1c(=O)c2c(ncn2CC2OCCO2)n(C)c1=O [DOXOFYLLINE] | > 30 µM | > 30 µM |  | > 30 µM | > 30 µM | > 30 µM | > 30 µM |
| CNC(C)CCC=C(C)C (centres undefined) [ISOMETHEPTENE] |  | > 30 µM |  |  |  | > 30 µM |  |
| COc1ccccc1N1CCN(CCCNc2cc(=O)n(C)c(=O)n2C)CC1 | > 30 µM | > 30 µM |  | > 30 µM | > 10 µM | > 30 µM | > 30 µM |
| CC[C@@H]1C(=O)OC[C@@H]1Cc1cncn1C [PILOCARPINE] | > 10 µM | > 30 µM |  | > 30 µM | > 30 µM | > 10 µM | > 30 µM |
| CC(=O)O[C@H]1CC[C@@]2(C)C(=CC[C@@H]3[C@@H]2CC[C@]2(C)C(c4cccnc4)=CC[C@@H]32)C1 [ABIRATERONE ACETATE] | > 30 µM | > 30 µM |  | > 30 µM | > 30 µM | > 30 µM | > 30 µM |
| CCOC(=O)[C@H](CCc1ccccc1)N[C@@H](C)C(=O)N1C(=O)N(C)C[C@H]1C(=O)O | > 30 µM | > 30 µM |  | > 30 µM | > 30 µM | > 30 µM | > 30 µM |
| C/C(O)=C(\C#N)C(=O)Nc1ccc(C(F)(F)F)cc1 [TERIFLUNOMIDE] | > 30 µM | > 30 µM |  | > 30 µM | > 30 µM | > 30 µM | > 30 µM |
| CC(CC(c1ccccc1)c1ccccc1)NC(C)(C)C (centres undefined) [TERODILINE] | > 30 µM | > 30 µM |  | > 30 µM | > 30 µM | > 30 µM | > 30 µM |
| O=C(NCCN1CCOCC1)c1ccc(Cl)cc1 [MOCLOBEMIDE] | > 10 µM | > 10 µM |  | > 30 µM | > 30 µM |  |  |
| COc1ccc(-c2ccc3cc(C(=O)O)ccc3c2)cc1C12CC3CC(CC(C3)C1)C2 | > 30 µM | > 30 µM |  | > 30 µM | > 30 µM | > 30 µM | > 30 µM |
| CCN1CCN(C(=O)N[C@@H](C(=O)N[C@@H]2C(=O)N3C(C(=O)O)=C(CSc4nnnn4C)CS[C@H]23)c2ccc(O)cc2)C(=O)C1=O [CEFOPERAZONE] | > 30 µM | > 30 µM |  | > 30 µM | > 30 µM | > 30 µM | > 30 µM |
| CN1C(=O)C(O)N=C(c2ccccc2)c2cc(Cl)ccc21 (centres undefined) [TEMAZEPAM] | > 10 µM | > 30 µM |  | > 30 µM | > 30 µM | > 10 µM | > 30 µM |
| CCCC(C)C1(CC)C(=O)NC(=O)NC1=O (centres undefined) [PENTOBARBITAL] | > 10 µM | > 10 µM |  | > 30 µM | > 30 µM |  | > 30 µM |
| O=C(O)CCCCCCCC(=O)O [AZELAIC ACID] | > 10 µM | > 10 µM |  | > 30 µM | > 30 µM |  |  |
| CC(=O)O[C@H]1C[C@@H]2CC[C@@H]3[C@H](CC[C@@]4(C)[C@H]3C[C@H]([N+]3(C)CCCCC3)[C@@H]4OC(C)=O)[C@@]2(C)C[C@@H]1N1CCCCC1 [VECURONIUM] | > 30 µM | > 30 µM |  | > 30 µM | > 30 µM | 18 µM | > 30 µM |
| CC(C)(C)C(=O)Oc1ccc(S(=O)(=O)Nc2ccccc2C(=O)NCC(=O)O)cc1 | > 30 µM |  |  | > 30 µM | > 30 µM | > 30 µM |  |
| CCN(CC)C(=O)N[C@H]1C[C@@H]2c3cccc4[nH]cc(c34)C[C@H]2N(C)C1 [TERGURIDE] | > 30 µM | > 30 µM |  | > 30 µM | > 30 µM | > 30 µM | > 30 µM |
| C[C@](N)(Cc1ccc(O)c(O)c1)C(=O)O [METHYLDOPA] | > 10 µM | > 10 µM |  | > 30 µM | > 30 µM |  |  |
| COc1ccc2c3c1O[C@H]1[C@@H](O)C=C[C@H]4[C@@H](C2)N(C)CC[C@@]341 [CODEINE] | > 10 µM | > 30 µM |  | > 10 µM | 7.2 µM | > 10 µM | > 30 µM |
| Cc1ccc(S(=O)(=O)NC(=O)NN2CC3CCCC3C2)cc1 (centres undefined) [GLICLAZIDE] | > 10 µM | > 10 µM |  | > 30 µM | > 30 µM |  |  |
| CC(C)C(=O)c1c(C(C)C)nn2ccccc12 [IBUDILAST] | > 30 µM | > 30 µM |  | > 30 µM | 0.4 µM | > 30 µM | > 30 µM |
| C#C[C@]1(O)CC[C@H]2[C@@H]3CCc4cc(OC5CCCC5)ccc4[C@H]3CC[C@@]21C [QUINESTROL] | > 10 µM | > 10 µM |  | > 30 µM | > 30 µM |  |  |
| CCCc1nc(C(C)(C)O)c(C(=O)OCc2oc(=O)oc2C)n1Cc1ccc(-c2ccccc2-c2nnn[nH]2)cc1 [OLMESARTAN MEDOXOMIL] | > 10 µM | > 50 µM |  | > 10 µM | 3.9 µM |  | > 30 µM |
| CN1CCN(CC/C=C2/c3ccccc3Sc3ccc(S(=O)(=O)N(C)C)cc32)CC1 [THIOTHIXENE] | > 10 µM | > 30 µM |  | 1.6 µM | 4.1 µM |  | > 30 µM |

Source: ChEMBL document CHEMBL5291721, “A preclinical secondary pharmacology resource illuminates target-adverse drug reaction associations of marketed drugs” (Nat Commun, 2023)
